{
  "source": "paper PMC12332266",
  "about": "(Frontiers in Pharmacology, 2025)",
  "key": {"[1]": {"test_system": "hiPSC-CM (iCell Cardiomyocytes^2)", "experiment": "RTCA CardioECR assessment (impedance and electrophysiology parameters)", "protocol": "(§1) Culture media change was performed every 2 days.\nAfter seeding on fibronectin-coated xCELLigence ePlates (Agilent Technologies, Inc. Santa Clara, CA, USA), iCell^2 CM were monitored continuously through impedance electrodes. The following impedance parameters were measured: Cell Index (CI, measure of cell “health” and monolayer integrity), beating rate (BR) and amplitude (CI Amplitude, magnitude of contraction). Electrophysiology-like parameters (Field Potential Duration (FPD), considered as a surrogate for QT in in vivo studies, and Spike Amplitude (SA), depolarization induced by Na^+ channel opening) were measured starting from day 4–6, following the monolayer formation. […] All RTCA CardioECR data were double normalized (DMSO control and the baseline) with no further statistical group comparison for the normalized parameters. The variability of the data within the treatment groups was assessed by standard deviation."}, "[2]": {"test_system": "hiPSC-CM (iCell Cardiomyocytes^2)", "experiment": "Intracellular miRNA expression by RT-qPCR in hiPSC-CM pellets after 72-hour treatment", "protocol": "as §1\nTotal RNA was extracted from hiPSC-CM using the miRNeasy 96 Kit (Qiagen, Hilden, Germany) following the manufacturer’s recommendations. After the extraction, RNA purity was assessed by NanoDrop™ 8000 Spectrophotometer (Thermo Fisher Scientific Inc.). 5–10 ng/μL of RNA per sample were reverse transcribed and pre-amplified by using the TaqMan™ Advanced miRNA cDNA Synthesis Kit (Thermo Fisher Scientific Inc.). The synthesized cDNA was used for RT-qPCR with selected TaqMan™ assays (Thermo Fischer Scientific Inc.). RT-qPCR was carried out following the Applied Biosciences TaqMan miRNA expression assay protocol on a ViiA7 instrument (Thermo Fisher Scientific, Inc.). […] Therefore, to maximize the number of drugs and concentrations, explored in the same study, we pooled the triplicates for intracellular profiling of miRNAs. Therefore, no statistical analysis was performed on the data of miRNA profiling in the pellets of hiPSC-CM.\nFollowing RTCA CardioECR assessment, hiPSC-CM cell pellets were collected, and total RNA was extracted and purified to investigate miRNAs upregulation by RT-qPCR. […] For the initial assessment of intracellular miRNAs in 12 different treatments, encompassing various drug classes, we used a panel of 17 miRNAs, which we selected from the publicly available data focusing mainly on in vitro models and structural cardiotoxicants (Supplementary Table S2)."}, "[3]": {"details": "ref extensive literature search, cited from earlier work"}},
  "note": "Like-named read-outs stand apart in the source and are kept apart here.",
  "data": [
    {"smiles": "CS(=O)(=O)CCNCc1ccc(-c2ccc3ncnc(Nc4ccc(OCc5cccc(F)c5)c(Cl)c4)c3c2)o1", "note": "[Lapatinib]", "values": [
      {"measurement": "RTCA, MEC (CI)", "setting": "[1]; hiPSC-CM, change ≥20%, Table 2", "result": "ND (ND – not detected, magnitude of change was lower than 20% for CI/BR)"},
      {"measurement": "Field Potential Duration MEC", "setting": "[1]; human, 72 h", "result": 0.1, "unit": "µM"},
      {"measurement": "Spike Amplitude (SA) MEC", "setting": "[1]; human, 72 h", "result": 0.1, "unit": "µM"},
      {"measurement": "miRNAs hiPSC-CM pellet, MEC overall", "setting": "[2]", "result": 0.1, "unit": "µM"},
      {"measurement": "miRNAs upregulated at the MEC overall (hiPSC-CM pellet)", "setting": "[2]", "result": "miR-126-3p, miR-146b-5p, miR-182-5p, miR-187-3p"},
      {"measurement": "Cmax total", "setting": "[3]; Supplementary Table 1", "result": 4.18, "unit": "µM"},
      {"measurement": "Cmax total", "setting": "[3]; Table 1", "result": 4.18, "unit": "µM"}
    ]},
    {"smiles": "COc1cccc2c1C(=O)c1c(O)c3c(c(O)c1C2=O)C[C@@](O)(C(C)=O)C[C@@H]3O[C@H]1C[C@H](N)[C@H](O)[C@H](C)O1", "note": "[Daunorubicin]", "values": [
      {"measurement": "RTCA, MEC (CI)", "setting": "[1]; human", "result": "0.1 µM (CI, BR)"},
      {"measurement": "Beating Rate MEC", "setting": "[1]; human, 72 h", "result": "0.1µM (+21%)"},
      {"measurement": "Beating rate (BR) MEC", "setting": "[1]; human, 72 h", "result": "0.1 (+21%) µM"},
      {"measurement": "Contractility Amplitude MEC", "setting": "[1]; human, 72 h", "result": "0.3µM (-82%)"},
      {"measurement": "Field Potential Duration MEC", "setting": "[1]; human, 72 h", "result": 0.1, "unit": "µM"},
      {"measurement": "RTCA, MEC (BR)", "setting": "[1]; human, 72 h", "result": "0.1 µM (CI, BR)"},
      {"measurement": "Spike Amplitude (SA) MEC", "setting": "[1]; human, 72 h", "result": "0.1µM (-93%)"},
      {"measurement": "miRNAs hiPSC-CM pellet, MEC overall", "setting": "[2]", "result": 0.1, "unit": "µM"},
      {"measurement": "miRNAs upregulated at the MEC overall (hiPSC-CM pellet)", "setting": "[2]", "result": "miR-96 -5p, miR-185-3p, miR-187-3p, miR-365a-5p"},
      {"measurement": "Cmax total", "setting": "[3]; Supplementary Table 1", "result": "0.310 to 7.84", "unit": "µM"},
      {"measurement": "Cmax total", "setting": "[3]; Table 1", "result": "0.31 to 7.84", "unit": "µM"}
    ]},
    {"smiles": "O=P1(N(CCCl)CCCl)NCCCO1", "note": "(stereo not shown) [Cyclophosphamide]", "values": [
      {"measurement": "Beating rate (BR) MEC", "setting": "[1]; hiPSC-CM, 72-hour treatment, lowest concentration causing at least 20% change from baseline", "result": "ND (ND – not detected, magnitude of change was lower than 20%)"},
      {"measurement": "RTCA, MEC (BR)", "setting": "[1]; hiPSC-CM, change ≥20%, Table 2", "result": "ND (ND – not detected, magnitude of change was lower than 20% for CI/BR)"},
      {"measurement": "RTCA, MEC (CI)", "setting": "[1]; hiPSC-CM, change ≥20%, Table 2", "result": "ND (ND – not detected, magnitude of change was lower than 20% for CI/BR)"},
      {"measurement": "miRNAs hiPSC-CM pellet, MEC overall", "setting": "[2]", "result": "3 µM (96-5p, 182-5p, 185-3p, 208b-3p)"},
      {"measurement": "miRNAs upregulated at the MEC overall (hiPSC-CM pellet)", "setting": "[2]", "result": "3 µM (96-5p, 182-5p, 185-3p, 208b-3p)"},
      {"measurement": "Cmax total", "setting": "[3]; Supplementary Table 1", "result": 126, "unit": "µM"},
      {"measurement": "Cmax total", "setting": "[3]; Table 1", "result": 126.00, "unit": "µM"}
    ]}
  ]
}
